Assay results taken from ChEMBL document CHEMBL1770068, “Pharmacophore-based virtual screening and Bayesian model for the identification of potential human leukotriene A4 hydrolase inhibitors” (Eur J Med Chem, 2011).

These molecules were tested against T1, Leukotriene A-4 hydrolase (Homo sapiens, UniProt P09960).
T1 sequence (P09960 whole entry): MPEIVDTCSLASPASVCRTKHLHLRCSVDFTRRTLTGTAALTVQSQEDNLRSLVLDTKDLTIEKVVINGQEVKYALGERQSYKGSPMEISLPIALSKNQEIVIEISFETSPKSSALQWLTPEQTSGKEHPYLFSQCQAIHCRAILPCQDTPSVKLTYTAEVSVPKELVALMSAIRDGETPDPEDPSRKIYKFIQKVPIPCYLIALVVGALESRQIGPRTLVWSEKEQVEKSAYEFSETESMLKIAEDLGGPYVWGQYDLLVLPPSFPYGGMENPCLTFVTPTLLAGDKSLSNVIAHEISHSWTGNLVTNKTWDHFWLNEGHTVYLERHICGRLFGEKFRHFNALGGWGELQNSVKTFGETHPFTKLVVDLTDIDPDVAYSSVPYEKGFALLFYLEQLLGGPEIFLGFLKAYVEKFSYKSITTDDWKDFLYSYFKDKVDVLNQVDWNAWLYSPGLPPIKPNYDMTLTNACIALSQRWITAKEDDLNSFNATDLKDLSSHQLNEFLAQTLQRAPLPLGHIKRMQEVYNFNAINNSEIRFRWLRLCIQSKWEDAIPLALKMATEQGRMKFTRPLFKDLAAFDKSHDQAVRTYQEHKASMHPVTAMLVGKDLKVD

IC50 [nM] | Structure (SMILES)
0.5 | CN(CCCOc1ccc(Oc2ccc(-c3ccccc3)cc2)cc1)CCC(=O)O
5 | O=C(O)c1ccc(CN2CC3CCCC2C(Nc2ccc(Oc4ccc(-c5ccccc5)cc4)cc2)C3)cc1 (stereo not given)
9 | O=C(O)c1ccc(CN2CC3CCCC2C(Nc2ccc(Oc4nc5ccccc5s4)cc2)C3)cc1 (stereo not given)
300 | CC(NC(=O)C(CC(=O)O)Cc1ccccc1)C(=O)O (stereo not given)

Structure (SMILES) | IC50 [nM]
O=C(CC(Cc1ccccc1)C(=O)N1CCCCC1C(=O)O)NO (stereo not given) | 1800
